Results from patent US12077503B2, “Substituted cyclic amides and their use as herbicides” (FMC CORPORATION, priority 2015, dated 2024).

How the values were obtained:
Assay type in all cases: in vivo
[1] = test system: ivy-leaved morning glory (Ipomoea hederacea); test: Test G Pre-Emergence Protocol; conditions: Ipomoea, pre-emergence, 312 h, evaluated after 13 days; for pest or weed control at 15.625 g/ha: 15.625 g ai/ha, read-out: Morning-glory, Ivy-leaved damage rating (100=total damage to plant; 0=no damage to plant); for pest or weed control at 62.5 g/ha: 62.5 g ai/ha, 100=total damage to plant, 0=no damage to plant, read-out: plant damage rating, Morningglory, Ivy-leaved; for pest or weed control at 250 g/ha: 250 g ai/ha, read-out: Morningglory, Ivy-leaved damage rating (100=total damage to plant; 0=no damage to plant)
How it was run: (§1)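 Spraying took place one day after sowing, at 15.625, 62.5 or 250 g/ha, using an acetone/water (50:50) spray solution containing 0.5% Tween 20. Plants were kept under glasshouse conditions (24/16 °C, 14 h light, 65% humidity, watered twice daily), and injury was rated 0–100 at day 13.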

corn (Zea mays) [2] = test: Test G Pre-Emergence Protocol; conditions: Zea mays, pre-emergence, 312 h, evaluated after 13 days; for plant injury at 15.625 g/ha: 15.625 g ai/ha; for plant injury at 15.625 g/ha / plant injury at 250 g/ha: read-out: Corn damage rating (100=total damage to plant; 0=no damage to plant); for plant injury at 62.5 g/ha: 62.5 g ai/ha, 100=total damage to plant, 0=no damage to plant, read-out: plant damage rating, Corn; for plant injury at 250 g/ha: 250 g ai/ha
How it was run: as §1

[3] = test system: giant foxtail (Setaria faberi); test: Test G Pre-Emergence Protocol; conditions: Setaria faberi, pre-emergence, 312 h, evaluated after 13 days; for pest or weed control at 15.625 g/ha: 15.625 g ai/ha; for pest or weed control at 15.625 g/ha / pest or weed control at 250 g/ha: read-out: Foxtail, Giant damage rating (100=total damage to plant; 0=no damage to plant); for pest or weed control at 62.5 g/ha: 62.5 g ai/ha, 100=total damage to plant, 0=no damage to plant, read-out: plant damage rating, Foxtail, Giant; for pest or weed control at 250 g/ha: 250 g ai/ha
How it was run: as §1

[4] = test system: barnyardgrass (Echinochloa crus-galli); test: Test G Pre-Emergence Protocol; conditions: Echinochloa crus-galli, pre-emergence, 312 h, evaluated after 13 days; for pest or weed control at 15.625 g/ha: 15.625 g ai/ha, read-out: Barnyard grass damage rating (100=total damage to plant; 0=no damage to plant); for pest or weed control at 62.5 g/ha: 62.5 g ai/ha, 100=total damage to plant, 0=no damage to plant, read-out: plant damage rating, Barnyardgrass; for pest or weed control at 250 g/ha: 250 g ai/ha, read-out: Barnyardgrass damage rating (100=total damage to plant; 0=no damage to plant)
How it was run: as §1

[5] = test system: velvetleaf (Abutilon theophrasti); test: Test G Pre-Emergence Protocol; conditions: Abutilon theophrasti, pre-emergence, 312 h, evaluated after 13 days; for pest or weed control at 15.625 g/ha: 15.625 g ai/ha; for pest or weed control at 15.625 g/ha / pest or weed control at 250 g/ha: read-out: Velvetleaf damage rating (100=total damage to plant; 0=no damage to plant); for pest or weed control at 62.5 g/ha: 62.5 g ai/ha, 100=total damage to plant, 0=no damage to plant, read-out: plant damage rating, Velvetleaf; for pest or weed control at 250 g/ha: 250 g ai/ha
How it was run: as §1

[6] = test system: redroot pigweed (Amaranthus retroflexus); test: Test G Pre-Emergence Protocol; conditions: Amaranthus retroflexus, pre-emergence, 312 h, evaluated after 13 days; for pest or weed control at 15.625 g/ha: 15.625 g ai/ha; for pest or weed control at 15.625 g/ha / pest or weed control at 250 g/ha: read-out: Pigweed, Redroot damage rating (100=total damage to plant; 0=no damage to plant); for pest or weed control at 62.5 g/ha: 62.5 g ai/ha, 100=total damage to plant, 0=no damage to plant, read-out: plant damage rating, Pigweed, Redroot; for pest or weed control at 250 g/ha: 250 g ai/ha
How it was run: as §1

[7] = test system: ivy-leaved morning glory (Ipomoea hederacea); test: Test G Post-Emergence Protocol; conditions: Ipomoea, post-emergence, 312 h; for pest or weed control at 15.625 g/ha: 15.625 g ai/ha, evaluated after 13 days (100=total damage to plant; 0=no damage to plant), read-out: Morningglory, Ivy-leaved damage rating; for pest or weed control at 62.5 g/ha: 62.5 g ai/ha, read-out: Morningglory, Ivy-leaved damage rating (100=total damage to plant; 0=no damage to plant); for pest or weed control at 62.5 g/ha / pest or weed control at 250 g/ha: evaluated after 13 days; for pest or weed control at 250 g/ha: 250 g ai/ha, read-out: damage to plant, Morningglory, Ivy-leaved (100=total damage to plant; 0=no damage to plant)
How it was run: (§2)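 Eight days post-sowing, plants received a spray of test compound (acetone/water 50:50, 0.5% Tween 20) at 15.625, 62.5 or 250 g/ha. Glasshouse regime thereafter: 24/16 °C, 14 h light, 65% humidity. Assessment after 13 days on a 0–100 damage scale.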

corn (Zea mays) [8] = test: Test G Post-Emergence Protocol; conditions: Zea mays, post-emergence, 312 h; for plant injury at 15.625 g/ha: 15.625 g ai/ha, evaluated after 13 days (100=total damage to plant; 0=no damage to plant), read-out: Corn damage rating; for plant injury at 62.5 g/ha: 62.5 g ai/ha, read-out: Corn damage rating (100=total damage to plant; 0=no damage to plant); for plant injury at 62.5 g/ha / plant injury at 250 g/ha: evaluated after 13 days; for plant injury at 250 g/ha: 250 g ai/ha, read-out: damage to plant, Corn (100=total damage to plant; 0=no damage to plant)
How it was run: as §2

[9] = test system: giant foxtail (Setaria faberi); test: Test G Post-Emergence Protocol; conditions: Setaria faberi, post-emergence, 312 h; for pest or weed control at 15.625 g/ha: 15.625 g ai/ha, evaluated after 13 days (100=total damage to plant; 0=no damage to plant), read-out: Foxtail, Giant damage rating; for pest or weed control at 62.5 g/ha: 62.5 g ai/ha, read-out: Foxtail, Giant damage rating (100=total damage to plant; 0=no damage to plant); for pest or weed control at 62.5 g/ha / pest or weed control at 250 g/ha: evaluated after 13 days; for pest or weed control at 250 g/ha: 250 g ai/ha, read-out: damage to plant, Foxtail, Giant (100=total damage to plant; 0=no damage to plant)
How it was run: as §2

[10] = test system: barnyardgrass (Echinochloa crus-galli); test: Test G Post-Emergence Protocol; conditions: Echinochloa crus-galli, post-emergence, 312 h; for pest or weed control at 15.625 g/ha: 15.625 g ai/ha, evaluated after 13 days (100=total damage to plant; 0=no damage to plant), read-out: Barnyardgrass damage rating; for pest or weed control at 62.5 g/ha: 62.5 g ai/ha, read-out: Barnyardgrass damage rating (100=total damage to plant; 0=no damage to plant); for pest or weed control at 62.5 g/ha / pest or weed control at 250 g/ha: evaluated after 13 days; for pest or weed control at 250 g/ha: 250 g ai/ha, read-out: damage to plant, Barnyardgrass (100=total damage to plant; 0=no damage to plant)
How it was run: as §2

[11] = test system: velvetleaf (Abutilon theophrasti); test: Test G Post-Emergence Protocol; conditions: Abutilon theophrasti, post-emergence, 312 h; for pest or weed control at 15.625 g/ha: 15.625 g ai/ha, evaluated after 13 days (100=total damage to plant; 0=no damage to plant), read-out: Velvetleaf damage rating; for pest or weed control at 62.5 g/ha: 62.5 g ai/ha, read-out: Velvetleaf damage rating (100=total damage to plant; 0=no damage to plant); for pest or weed control at 62.5 g/ha / pest or weed control at 250 g/ha: evaluated after 13 days; for pest or weed control at 250 g/ha: 250 g ai/ha, read-out: damage to plant, Velvetleaf (100=total damage to plant; 0=no damage to plant)
How it was run: as §2

[12] = test system: redroot pigweed (Amaranthus retroflexus); test: Test G Post-Emergence Protocol; conditions: Amaranthus retroflexus, post-emergence, 312 h; for pest or weed control at 15.625 g/ha: 15.625 g ai/ha, evaluated after 13 days (100=total damage to plant; 0=no damage to plant), read-out: Pigweed, Redroot damage rating; for pest or weed control at 62.5 g/ha: 62.5 g ai/ha, read-out: Pigweed, Redroot damage rating (100=total damage to plant; 0=no damage to plant); for pest or weed control at 62.5 g/ha / pest or weed control at 250 g/ha: evaluated after 13 days; for pest or weed control at 250 g/ha: 250 g ai/ha, read-out: damage to plant, Pigweed, Redroot (100=total damage to plant; 0=no damage to plant)
How it was run: as §2

Cc1onc(NC(=O)[C@@H]2C(=O)N(C)C[C@H]2c2ccc(C(F)(F)F)cc2)c1Cl (racemic) [Compound 1580]
0%: pest or weed control at 15.625 g/ha [1] | pest or weed control at 62.5 g/ha [1] | pest or weed control at 250 g/ha [1] | plant injury at 15.625 g/ha (corn (Zea mays) [2]) | plant injury at 62.5 g/ha (corn (Zea mays) [2]) | plant injury at 250 g/ha (corn (Zea mays) [2]) | pest or weed control at 15.625 g/ha [3] | pest or weed control at 62.5 g/ha [3] | pest or weed control at 250 g/ha [3] | pest or weed control at 15.625 g/ha [4] | pest or weed control at 62.5 g/ha [4] | pest or weed control at 250 g/ha [4] | pest or weed control at 15.625 g/ha [5] | pest or weed control at 62.5 g/ha [5] | pest or weed control at 250 g/ha [5] | pest or weed control at 15.625 g/ha [6] | pest or weed control at 62.5 g/ha [6] | pest or weed control at 250 g/ha [6] | pest or weed control at 15.625 g/ha [7] | pest or weed control at 62.5 g/ha [7] | pest or weed control at 250 g/ha [7] | plant injury at 15.625 g/ha (corn (Zea mays) [8]) | plant injury at 62.5 g/ha (corn (Zea mays) [8]) | plant injury at 250 g/ha (corn (Zea mays) [8]) | pest or weed control at 15.625 g/ha [9] | pest or weed control at 62.5 g/ha [9] | pest or weed control at 250 g/ha [9] | pest or weed control at 15.625 g/ha [10] | pest or weed control at 62.5 g/ha [10] | pest or weed control at 250 g/ha [10] | pest or weed control at 15.625 g/ha [11] | pest or weed control at 62.5 g/ha [11] | pest or weed control at 250 g/ha [11] | pest or weed control at 15.625 g/ha [12] | pest or weed control at 62.5 g/ha [12] | pest or weed control at 250 g/ha [12]

CN1C[C@H](c2ccc(C(F)(F)F)cc2)[C@@H](C(=O)Nc2ccc(Cl)cc2[N+](=O)[O-])C1=O (racemic) [Compound 1432]
0%: pest or weed control at 15.625 g/ha [1] | pest or weed control at 62.5 g/ha [1] | pest or weed control at 250 g/ha [1] | plant injury at 15.625 g/ha (corn (Zea mays) [2]) | plant injury at 62.5 g/ha (corn (Zea mays) [2]) | plant injury at 250 g/ha (corn (Zea mays) [2]) | pest or weed control at 15.625 g/ha [3] | pest or weed control at 62.5 g/ha [3] | pest or weed control at 250 g/ha [3] | pest or weed control at 15.625 g/ha [4] | pest or weed control at 62.5 g/ha [4] | pest or weed control at 250 g/ha [4] | pest or weed control at 15.625 g/ha [5] | pest or weed control at 62.5 g/ha [5] | pest or weed control at 250 g/ha [5] | pest or weed control at 15.625 g/ha [6] | pest or weed control at 62.5 g/ha [6] | pest or weed control at 250 g/ha [6] | pest or weed control at 15.625 g/ha [7] | pest or weed control at 62.5 g/ha [7] | pest or weed control at 250 g/ha [7] | plant injury at 15.625 g/ha (corn (Zea mays) [8]) | plant injury at 62.5 g/ha (corn (Zea mays) [8]) | plant injury at 250 g/ha (corn (Zea mays) [8]) | pest or weed control at 15.625 g/ha [9] | pest or weed control at 62.5 g/ha [9] | pest or weed control at 250 g/ha [9] | pest or weed control at 15.625 g/ha [10] | pest or weed control at 62.5 g/ha [10] | pest or weed control at 250 g/ha [10] | pest or weed control at 15.625 g/ha [11] | pest or weed control at 62.5 g/ha [11] | pest or weed control at 250 g/ha [11] | pest or weed control at 15.625 g/ha [12] | pest or weed control at 62.5 g/ha [12] | pest or weed control at 250 g/ha [12]
